From patent US20240246918A1, “COMPOUNDS AND COMPOSITIONS AS EIF4E INHIBITORS AND THE USES THEREOF” (Ribometrix, Inc., priority 2022, published 2024)

Tests used:
[1] = tested on: COLO 205 colorectal tumor cells; experiment: Tumor cell viability inhibition assay (CellTiter-Glo 2.0, 72 hours); type: cell-based; details: COLO 205 cell viability
Experimental: The effect of compound treatment on COLO 205 tumor cell viability was assessed using cellular ATP quantification methods (Promega CellTiter-Glo® 2.0, G9241), as follows. Test compounds were prepared using 11-point, 4-fold serial dilutions in DMSO and 100 nL of diluted compounds were transferred to 384-well assay-ready plates. COLO 205 (ATCC, CCL-222) colorectal tumor cells were seeded to assay-ready plates in RPMI-1640 medium supplemented with 10% FBS at 1500 cells in a volume of 33.5 microliters per well. After 72 hours of compound treatment, cellular ATP was assessed by CellTiter-Glo® 2.0 Cell Viability Assay method, according to the manufacturer's instructions. Luminescence was measured using a Clariostar Plus microplate reader (BMG Labtech) or equivalent. After normalization to the average of DMSO control and maximum inhibition control wells, concentration-response data were plotted and standard 4-parameter curve fitting (PEI Signals) was utilized to determine IC50

[2] = molecular target: T1, human eIF4E protein (Homo sapiens, UniProt P06730); experiment: Biochemical competitive binding assay (TR-FRET competition, EDA-m7GDP-ATTO-647N probe); details: read-out: hEIF4E TR-FRET IC50
T1 construct: purchased Novus NBP-45314
Experimental: The potencies of compounds binding to human eIF4E protein were measured using a 384-well time-resolved fluorescence resonance energy transfer (TR-FRET) competition assay. The assay was performed in assay buffer containing 50 mM HTEPES pH 7.5, 100 mM KCl, 0.02% Tween-20, and 0.1 mg/mL bovine serum albumin (BSA). The reaction volume was 10 μL and each reaction contained 4 nM recombinant 6×HIS-tagged human EIF4E protein (Novus, NBP-45314), 5 nM EDA-m7GDP-ATTO-647N (Jena Bioscience, NU-827-647N), 2.5 nM Europium conjugated Anti-6×HIS antibody (PerkinElmer, AD0402) and varying concentrations of compound. The final DMSO concentration was […].
Compounds were prepared using 11-point, 4-fold serial dilutions in DMSO and 100 nL of diluted compounds were transferred to 384-well assay-ready plates. Recombinant human EIF4E protein at 2× final concentration (8 nM) was pre-incubated with Eu-anti-6×HIS antibody at 2× final concentration (5 nM) for 5 minutes, then 5 μL of the protein solution was added to assay-ready plates. The protein/compound mix was incubated for 15 minutes, after which 5 μL of a solution containing EDA-m7GDP-ATTO-647N probe at 2× final concentration (10 nM) was added. After a subsequent 15-minute incubation, time-resolved fluorescence of assay plates was measured using a Clariostar Plus microplate reader (BMG Labtech) and TR-FRET values were calculated by taking a ratio of the 665 to 620 wavelength signals. After normalization to the average of DMSO control and maximum inhibition control wells, concentration-response data were plotted and standard 4-parameter curve fitting (PEI Signals) was utilized to determine IC50 values.

T1 sequence (P06730 whole entry): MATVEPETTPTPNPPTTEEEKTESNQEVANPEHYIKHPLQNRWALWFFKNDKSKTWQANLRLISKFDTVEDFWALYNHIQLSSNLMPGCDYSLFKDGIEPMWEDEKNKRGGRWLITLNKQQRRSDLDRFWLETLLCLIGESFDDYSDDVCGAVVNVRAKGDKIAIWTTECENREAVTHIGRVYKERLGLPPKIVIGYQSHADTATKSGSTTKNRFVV

Row | SMILES | IC50 ([1]; Homo sapiens, COLO 205, 72 h) | IC50 [2] | IC50 [1]
1 | Cc1cc(-c2cc(Cl)ccc2OCCn2c(C)nc3c(c2=O)CC(N2CC4CC(C2)C4(F)F)CC3)c2scc(C(=O)O)c2n1 (single isomer, unassigned) [Compound 361] | < 5 µM | < 100 nM | 
2 | [2H]C1(N2CCC(OC(F)(F)F)CC2)CCc2nc(C)n(CCOc3ccc(Cl)cc3-c3cc(C)nc4c(C(=O)O)csc34)c(=O)c2C1 (single isomer, unassigned) [Compound 362] | < 5 µM | < 100 nM | 
3 | Cc1cc(-c2cc(Cl)ccc2OCCn2c(C)nc3c(c2=O)CC(N2CC4(CCC(F)(F)CC4)C2)CC3)c2scc(C(=O)NS(C)(=O)=O)c2n1 (single isomer, unassigned) [Compound 363] | < 5 µM | < 100 nM | 
4 | Cc1cc(-c2cc(Cl)ccc2OCCn2c(C)nc3c(c2=O)CC(N2CC4(CCC(F)(F)CC4)C2)CC3)c2scc(C(=O)NS(C)(=O)=O)c2n1 (single isomer, unassigned) [Compound 364] |  | < 100 nM | < 5 µM
5 | COC1CCN(C2CCc3nc(C)n(CC#Cc4ccc(Cl)cc4-c4ccnc5c(C(=O)O)csc45)c(=O)c3C2)CC1 (single isomer, unassigned) [Compound 365] | < 5 µM | < 100 nM | 
6 | CO[C@@H]1CCN([C@@H]2CCc3nc(C)n(CCOc4ccc(Cl)cc4-c4cc(C)nc5c(C(=O)O)csc45)c(=O)c3C2)C[C@@H]1F (single isomer, unassigned) [Compound 366] | 5 to 20 µM | < 100 nM | 
7 | CO[C@@H]1CCN([C@H]2CCc3nc(C)n(CCOc4ccc(Cl)cc4-c4cc(C)nc5c(C(=O)O)csc45)c(=O)c3C2)C[C@@H]1F (single isomer, unassigned) [Compound 367] | < 5 µM | < 100 nM | 
8 | Cc1cc(-c2cc(Cl)ccc2OCCn2c(C)nc3c(c2=O)C[C@H](N2C[C@@H]4CC(F)(F)C[C@@H]4C2)CC3)c2scc(C(=O)NS(C)(=O)=O)c2n1 (single isomer, unassigned) [Compound 368] | < 5 µM | < 100 nM | 
9 | [2H]C1(N2CCC(OC(F)(F)F)CC2)CCc2nc(C)n(CCOc3ccc(Cl)cc3-c3cc(C)nc4c(C(=O)O)csc34)c(=O)c2C1 (single isomer, unassigned) [Compound 370] |  | < 100 nM | < 5 µM
10 | COC1CCN([C@H]2Cc3c(nc(C)n(CCOc4ccc(Cl)cc4-c4cc(C)nc5c(C(=O)O)csc45)c3=O)C3(CC3)C2)CC1 (single isomer, unassigned) [Compound 371] | < 5 µM | < 100 nM | 
11 | COC1CCN([C@@H]2Cc3c(nc(C)n(CCOc4ccc(Cl)cc4-c4cc(C)nc5c(C(=O)O)csc45)c3=O)C3(CC3)C2)CC1 (single isomer, unassigned) [Compound 372] | < 5 µM | < 100 nM | 
12 | Cc1cc(-c2cc(Cl)ccc2OCCn2c(C)nc3c(c2=O)C[C@H](N2CCC(C(F)(F)F)CC2)CC3)c2scc(C(=O)O)c2n1 (single isomer, unassigned) [Compound 373] | < 5 µM | < 100 nM | 
13 | Cc1cc(-c2cc(Cl)ccc2OCCn2c(C)nc3c(c2=O)C[C@@H](N2CCC(C(F)(F)F)CC2)CC3)c2scc(C(=O)O)c2n1 (single isomer, unassigned) [Compound 374] | < 5 µM | < 100 nM | 
14 | Cc1cc(-c2cc(Cl)ccc2OCCn2c(C)nc3c(c2=O)CC(N2CC4CC(C2)C4(F)F)CC3)c2scc(C(=O)O)c2n1 (single isomer, unassigned) [Compound 375] |  | < 100 nM | < 5 µM
15 | CO[C@@H]1CCN([C@@H]2CCc3nc(C)n(CCOc4ccc(Cl)cc4-c4cc(C)nc5c(C(=O)O)csc45)c(=O)c3C2)CC1(C)C (single isomer, unassigned) [Compound 376] | < 5 µM | < 100 nM | 
16 | CO[C@@H]1CCN([C@H]2CCc3nc(C)n(CCOc4ccc(Cl)cc4-c4cc(C)nc5c(C(=O)O)csc45)c(=O)c3C2)CC1(C)C (single isomer, unassigned) [Compound 377] | < 5 µM | < 100 nM | 
17 | CO[C@H]1CCN([C@H]2CCc3nc(C)n(CCOc4ccc(Cl)cc4-c4cc(C)nc5c(C(=O)O)csc45)c(=O)c3C2)CC1(C)C (single isomer, unassigned) [Compound 378] | < 5 µM | < 100 nM | 
18 | Cc1cc(-c2cc(Cl)ccc2OCCn2c(C)nc3c(c2=O)CC(N2CCC(OC(F)(F)F)CC2)CC32CC2)c2scc(C(=O)O)c2n1 (single isomer, unassigned) [Compound 379, 7-(5-chloro-2-(2-(2′-methyl-4′-oxo-6′-(4-(trifluoromethoxy)piperidin-1-yl)-6′,7′-dihydro-4′H-spiro[cyclopropane-1,8′-quinazolin]-3′(5′H)-yl)ethoxy)phenyl)-5-methylthieno[3,2-b]pyridine-3-carboxylic acid] | < 5 µM | < 100 nM | 
19 | Cc1cc(-c2cc(Cl)ccc2OCCn2c(C)nc3c(c2=O)CC(N2CCC(OC(F)(F)F)CC2)CC32CC2)c2scc(C(=O)O)c2n1 (single isomer, unassigned) [Compound 380, 7-(5-chloro-2-(2-(2′-methyl-4′-oxo-6′-(4-(trifluoromethoxy)piperidin-1-yl)-6′,7′-dihydro-4′H-spiro[cyclopropane-1,8′-quinazolin]-3′(5′H)-yl)ethoxy)phenyl)-5-methylthieno[3,2-b]pyridine-3-carboxylic acid] |  | < 100 nM | < 5 µM
20 | Cc1cc(-c2cc(Cl)ccc2OCCn2c(C)nc3c(c2=O)C[C@H](N2CCC[C@H](C(F)(F)F)C2)CC3)c2scc(C(=O)O)c2n1 (single isomer, unassigned) [Compound 381] | < 5 µM | < 100 nM | 
21 | Cc1cc(-c2cc(Cl)ccc2OCCn2c(C)nc3c(c2=O)C[C@H](N2CCC[C@@H](C(F)(F)F)C2)CC3)c2scc(C(=O)O)c2n1 (single isomer, unassigned) [Compound 382] | < 5 µM | < 100 nM | 
22 | Cc1cc(-c2cc(Cl)ccc2OCCn2c(C)nc3c(c2=O)C[C@@H](N2CCC[C@@H](C(F)(F)F)C2)CC3)c2scc(C(=O)O)c2n1 (single isomer, unassigned) [Compound 383] | 5 to 20 µM | < 100 nM | 
23 | Cc1cc(-c2cc(Cl)ccc2OCCn2c(C)nc3c(c2=O)C[C@@H](N2CCC[C@H](C(F)(F)F)C2)CC3)c2scc(C(=O)O)c2n1 (single isomer, unassigned) [Compound 384] | < 5 µM | < 100 nM | 
24 | Cc1cc(-c2cc(Cl)ccc2OCCn2c(C)nc3c(c2=O)C[C@H](N2CCC(OC(F)F)CC2)CC3)c2scc(C(=O)O)c2n1 (single isomer, unassigned) [Compound 385] | < 5 µM | < 100 nM | 
25 | Cc1cc(-c2cc(Cl)ccc2OCCn2c(C)nc3c(c2=O)C[C@H](N2CC[C@H](OC(F)(F)F)C2)CC3)c2scc(C(=O)O)c2n1 (single isomer, unassigned) [Compound 386] | < 5 µM | < 100 nM | 
26 | Cc1cc(-c2cc(Cl)ccc2OCCn2c(C)nc3c(c2=O)C[C@H](N2CC[C@@H](OC(F)(F)F)C2)CC3)c2scc(C(=O)O)c2n1 (single isomer, unassigned) [Compound 387] | < 5 µM | < 100 nM | 
27 | Cc1cc(-c2cc(Cl)ccc2OCCn2c(C)nc3c(c2=O)C[C@@H](N2CC[C@H](OC(F)(F)F)C2)CC3)c2scc(C(=O)O)c2n1 (single isomer, unassigned) [Compound 388] | < 5 µM | < 100 nM | 
